System: 379773-124-R-J2-PDC spheroid viability
Assay: Anticancer human tumor 379773-124-R-J2-PDC patient-derived endometrial carcinoma cell line growth inhibition [POLQ]
Details: spheroids with HUVEC and MSC; for IC50: curve of first compound; for viability, T/C: stronger effect = lower value
Summary of the method: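 Complex spheroid viability model combining PDC tumour cells with endothelial (HUVEC) and MSC stromal cells. Novobiocin, ART-558 or RP6685 were tested singly and in combination with standard and investigational anticancer drugs. Each was titrated in half-log steps from near clinical Cmax, or from 10 microM where Cmax was unknown.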

[1] = second compound 0.0316 µM, first compound 0.0316 µM
[2] = second compound 0.0316 µM, first compound 0.1 µM
[3] = second compound 0.0316 µM, first compound 0.316 µM
[4] = second compound 0.0316 µM, first compound 1 µM
[5] = second compound 0.0316 µM, first compound 3.16 µM
[6] = second compound 0.0316 µM, first compound 10 µM
[7] = second compound 0.1 µM, first compound 0.0316 µM
[8] = second compound 0.1 µM, first compound 0.1 µM
[9] = second compound 0.1 µM, first compound 0.316 µM
[10] = second compound 0.1 µM, first compound 1 µM
[11] = second compound 0.1 µM, first compound 3.16 µM
[12] = second compound 0.1 µM, first compound 10 µM
[13] = second compound 0.316 µM, first compound 0.0316 µM
[14] = second compound 0.316 µM, first compound 0.1 µM
[15] = second compound 0.316 µM, first compound 0.316 µM
[16] = second compound 0.316 µM, first compound 1 µM
[17] = second compound 0.316 µM, first compound 3.16 µM
[18] = second compound 0.316 µM, first compound 10 µM
[19] = second compound 1 µM, first compound 0.0316 µM
[20] = second compound 1 µM, first compound 0.1 µM
[21] = second compound 1 µM, first compound 0.316 µM
[22] = second compound 1 µM, first compound 1 µM
[23] = second compound 1 µM, first compound 3.16 µM
[24] = second compound 1 µM, first compound 10 µM
[25] = second compound 3.16 µM, first compound 0.0316 µM
[26] = second compound 3.16 µM, first compound 0.1 µM
[27] = second compound 3.16 µM, first compound 0.316 µM
[28] = second compound 3.16 µM, first compound 1 µM
[29] = second compound 3.16 µM, first compound 3.16 µM
[30] = second compound 3.16 µM, first compound 10 µM
[31] = second compound 10 µM, first compound 0.0316 µM
[32] = second compound 10 µM, first compound 0.1 µM
[33] = second compound 10 µM, first compound 0.316 µM
[34] = second compound 10 µM, first compound 1 µM
[35] = second compound 10 µM, first compound 3.16 µM
[36] = second compound 10 µM, first compound 10 µM
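Also: spheroids exposed to drugs for seven days before readout.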
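For viability, T/C in this document: percent viability relative to DMSO vehicle control taken as 100%.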

`CCc1cc2c(N3CCc4c(cc(Cn5ccnc5)cc4-c4cn(C)nc4C(F)(F)F)C3=O)cc(C)nc2c(OC)n1` + Nc1ccc(C#CCN(C(=O)Cc2ncc(C(F)(F)F)cc2C(F)(F)F)c2ccc(F)cc2)nn1 gave an IC50 (second compound 0.0316 µM) greater than 10 µM, an IC50 (second compound 0.1 µM) of 6.39 µM and an IC50 (second compound 0.316 µM) of 4.84 µM. The IC50 (second compound 1 µM) was 9.88 µM, the IC50 (second compound 3.16 µM) was greater than 10 µM and the IC50 (second compound 10 µM) was greater than 10 µM. The viability, T/C [1] was 75.7%, the viability, T/C [2] was 78.4% and the viability, T/C [3] was 61.9%. The viability, T/C [4] was 60.9%, the viability, T/C [5] was 64.3% and the viability, T/C [6] was 48.9%. It also gave a viability, T/C [7] of 66.9%, a viability, T/C [8] of 81.1% and a viability, T/C [9] of 65.3%. It also gave a viability, T/C [10] of 62.2%, a viability, T/C [11] of 55.7% and a viability, T/C [12] of 46.4%. The viability, T/C [13] was 74.3%, the viability, T/C [14] was 73% and the viability, T/C [15] was 66.6%. It also gave a viability, T/C [16] of 62.3%, a viability, T/C [17] of 52.1% and a viability, T/C [18] of 44.7%. For the same compound, the viability, T/C [19] was 77.5%, the viability, T/C [20] was 68.8% and the viability, T/C [21] was 66.2%. The viability, T/C [22] was 61.6%, the viability, T/C [23] was 52.4% and the viability, T/C [24] was 50.6%. The viability, T/C [25] was 82.2%, the viability, T/C [26] was 67.6% and the viability, T/C [27] was 67.2%. For the same compound, the viability, T/C [28] was 64.7%, the viability, T/C [29] was 57.9% and the viability, T/C [30] was 51.8%. It also gave a viability, T/C [31] of 74.5%, a viability, T/C [32] of 68.2% and a viability, T/C [33] of 70.7%. For the same compound, the viability, T/C [34] was 56%, the viability, T/C [35] was 56.4% and the viability, T/C [36] was 51.8%.
`CNCc1ccc(-c2[nH]c3cc(F)cc4c3c2CCNC4=O)cc1` + Nc1ccc(C#CCN(C(=O)Cc2ncc(C(F)(F)F)cc2C(F)(F)F)c2ccc(F)cc2)nn1 gave an IC50 (second compound 0.0316 µM) greater than 10 µM, an IC50 (second compound 0.1 µM) greater than 10 µM and an IC50 (second compound 0.316 µM) greater than 10 µM. For the same compound, the IC50 (second compound 1 µM) was greater than 10 µM, the IC50 (second compound 3.16 µM) was greater than 10 µM and the IC50 (second compound 10 µM) was greater than 10 µM. The viability, T/C [1] was 92.7%, the viability, T/C [2] was 91.7% and the viability, T/C [3] was 91.2%. For the same compound, the viability, T/C [4] was 101%, the viability, T/C [5] was 99.8% and the viability, T/C [6] was 99.7%. It also gave a viability, T/C [7] of 84.4%, a viability, T/C [8] of 90.7% and a viability, T/C [9] of 87.5%. For the same compound, the viability, T/C [10] was 95.8%, the viability, T/C [11] was 101% and the viability, T/C [12] was 79.6%. For the same compound, the viability, T/C [13] was 101%, the viability, T/C [14] was 95.4% and the viability, T/C [15] was 85.9%. It also gave a viability, T/C [16] of 87.1%, a viability, T/C [17] of 93.8% and a viability, T/C [18] of 93.3%. The viability, T/C [19] was 90.4%, the viability, T/C [20] was 101% and the viability, T/C [21] was 91.2%. The viability, T/C [22] was 91.2%, the viability, T/C [23] was 92.9% and the viability, T/C [24] was 83.4%. It also gave a viability, T/C [25] of 88.2%, a viability, T/C [26] of 86% and a viability, T/C [27] of 84.8%. The viability, T/C [28] was 86%, the viability, T/C [29] was 96.3% and the viability, T/C [30] was 79.4%. For the same compound, the viability, T/C [31] was 102%, the viability, T/C [32] was 88.4% and the viability, T/C [33] was 85.3%. It also gave a viability, T/C [34] of 87.1%, a viability, T/C [35] of 96.6% and a viability, T/C [36] of 86.4%.
`Nc1ccn(C2OC(CO)C(O)C2(F)F)c(=O)n1` (stereo unspecified) + Nc1ccc(C#CCN(C(=O)Cc2ncc(C(F)(F)F)cc2C(F)(F)F)c2ccc(F)cc2)nn1 showed an IC50 (second compound 0.0316 µM) of less than 0.0316 µM, an IC50 (second compound 0.1 µM) of less than 0.0316 µM and an IC50 (second compound 0.316 µM) of less than 0.0316 µM. It also gave an IC50 (second compound 1 µM) of less than 0.0316 µM, an IC50 (second compound 3.16 µM) of 0.042 µM and an IC50 (second compound 10 µM) of 0.0719 µM. The viability, T/C [1] was 15.1%, the viability, T/C [2] was 10.6% and the viability, T/C [3] was 11.7%. For the same compound, the viability, T/C [4] was 13.6%, the viability, T/C [5] was 12.6% and the viability, T/C [6] was 9.91%. For the same compound, the viability, T/C [7] was 19.5%, the viability, T/C [8] was 11.3% and the viability, T/C [9] was 11.3%. The viability, T/C [10] was 11.7%, the viability, T/C [11] was 12.6% and the viability, T/C [12] was 11.1%. For the same compound, the viability, T/C [13] was 24%, the viability, T/C [14] was 12.2% and the viability, T/C [15] was 10.3%. For the same compound, the viability, T/C [16] was 13.1%, the viability, T/C [17] was 12% and the viability, T/C [18] was 12%. The viability, T/C [19] was 36.3%, the viability, T/C [20] was 11.9% and the viability, T/C [21] was 10.3%. For the same compound, the viability, T/C [22] was 9.8%, the viability, T/C [23] was 10.8% and the viability, T/C [24] was 12.4%. It also gave a viability, T/C [25] of 61.2%, a viability, T/C [26] of 15.9% and a viability, T/C [27] of 10.5%. It also gave a viability, T/C [28] of 10.6%, a viability, T/C [29] of 9.92% and a viability, T/C [30] of 10.9%. For the same compound, the viability, T/C [31] was 96.1%, the viability, T/C [32] was 31.3% and the viability, T/C [33] was 12.7%. For the same compound, the viability, T/C [34] was 9.85%, the viability, T/C [35] was 10.6% and the viability, T/C [36] was 9.44%.

Reference: PubChem BioAssay AID1963848 (Molecular Pharmacology Branch, DTP, NCI, 2024)
